Where two headings read alike, the source gives them in different places.

By IC50 is commonly meant the concentration at which inhibition is half-maximal.

The subject of one data set is male dd-mice. In words: Acute toxicity. In kind it is in vivo. As to conditions: Minimum lethal dose, oral, mortality observed for seven days. The method, then:
The compounds were orally administrated to male dd-mice weighing 20 ± 1 g. Minimum lethal dose (MLD) was determined by observing the mortality for seven days after the administration.

The subject of the next data set is Wistar male rats. The data set is described as follows: Diuretic activity. The format is in vivo. To be noted: Rattus norvegicus, po, 25 mg/kg orally, urine taken for 6 hours. The method, then:
Wistar male rats weighing 150 to 300 g were used after fasting for 18 hours. […] The test was performed using 3 groups per test compound, and each group consists of 3 animals. The urine was metered by a measuring cylinder and electrolytes (Na^+ and K^+) in the urine were analyzed by flame photometer (model […]: Hitachi Ltd.). Parameters in Table 3 are represented by relative value for control.

A further data set relates to male dd mice. The data set is described as follows: Inhibition of platelet activating factor (PAF)-induced mortality. In kind it is in vivo. As to conditions: Mus musculus, minimum effective dose, oral, 1 hour before 40 µg/kg PAF i.v., mortality 2 hours after PAF, read-out: PAF-induced mortality MED. How it is done: The experiment was performed by a minor modification of method of Carlson et al. [Agents and Actions, 21, 379 (1987)]. Groups each consisting of 10 male dd mice (weighing 28 to 32 g) were used, and 100 mg/kg of test compound or a saline (control) was orally administrated. One hour after the administration of test compound, 40 µg/kg of PAF (manufactured by Avanti Polar Lipids Co., Ltd.) was intravenously administered. Two hours after PAF injection, the mortality rate of the animals was observed. […]

Another data set concerns trachea. In words: Passive Schultz-Dale reaction (broncho-dilatory effect) on isolated tracheal strips. To be noted: Cavia porcellus; 50% relaxation of antigen (EWA, 1 µg/ml)-contracted tracheal strips of passively sensitized guinea pigs. How it is done: Guinea pigs were passively sensitized as follows. Hartley male guinea pigs weighing 350 to 500 g were injected intraperitoneally with rabbit anti-egg albumin (EWA) serum prepared by the method of Koda et al. [Folia pharmacol., Japon 66, 237, (1970)]. After 24 hours, the guinea pigs were stunned and exsanguinated, and then trachea was excised. The zig-zag strips of the trachea were prepared by the method of Emmerson and Mackay [J. Pharm. Pharmacol., 31, 798, (1979)]. The strips were suspended in Krebs-Henseleit solution at 37°C under aeration of a mixed gas of 95% oxygen and 5% carbon dioxide, and incubated for one hour. Antigen (EWA) was then introduced in the solution (final concentration; 1 µg/ml), and the contraction was measured by isotonictransducer (TD-112s, made by Nihon Kohden K.K., Japan) and recorded on a recorder (Type 3066, made by Yokogawa-Hokushin Denki, K.K. Japan). After the contraction curves reached plateau the compounds were successively added in order to get cumulative concentration-relaxation curves. Concentration of 50% relaxation rate (IC50) was calculated from the regression line, which was obtained from cumulative concentration-relaxation curves.

A further data set concerns Hartley male guinea pigs. The data set is described as follows: Experimental asthma (collapse time after antigen aerosol). The format is in vivo. To be noted: 50 mg/kg orally, 1 hour before 1.5% EWA aerosol; n=3-10 mean±S.E.M.; control 254 ± 18. The method, then:
Guinea pigs were passively sensitized as follows. Hartley male guinea pigs weighing 350 to 500 g were intraperitoneally injected with 1 ml of rabbit anti-egg alubmin (EWA) serum prepared by the method of Koda et al. [Folia pharmacol., Japon, 66, 237 (1970)]. The animals were treated with intraperitoneal injection of diphenhydramine (20 mg/kg) and propranolol (5 mg/kg), 30 minutes before administration of test compounds. 17 hours after the sensitization, the test compounds (50 mg/kg or 5 mg/kg) or saline (control) were orally administrated to sensitized animals. After one hour from the administration of the test compounds, the guinea pigs were placed in plastic observation box and were exposed to an aerosal antigen of 1.5% EWA.
The time until the onset of respiratory distress-like symptom [collapse time (second)] was measured as a result of experimental asthma.

The next data set relates to Male ddy mice. In words: Electroconvulsive shock (ECS)-induced amnesia, step through passive avoidance. The format is in vivo. As to conditions: mean ± S.E.M., control 70.9±13.5. The method, then: Male ddy mice (weighing 23 to 29 g) were used and each group consists of 14 to 15 animals. These tests were performed with a step through type passive avoidance apparatus. As experimental apparatus, two rooms (bright and dark) with automatic management system were used. An experimental apparatus is composed of a bright room equipped with 4W of fluorescent light (15 x 9 x 11 cm) and a dark room (15 x 14 x 18 cm), the two rooms are separated by a guillotine door of 3 x 3 cm. The floor of both rooms is stainless steal grid floor and the weak electric current can be send the grid floor of dark room. In the automatic management system, latency of acquisition trial and test trial are measured automatically by controlling with a controller (TK-402, by UNICOM, Japan).
The test compound was dissolved in saline and saline was used as a control. The test compound and the saline (control) were orally administered 60 minutes before the acquisition trial, respectively.
Acquisition trial for learning was performed as follows. […] As soon as the mouse entered the dark room, a scrambled foot-shock (0.18 mA) was delivered to the floor grid for 2 seconds. In the test trial, given 24 hours after the acquisition trial, the animal was again placed in the bright room and the response latency to enter the dark room was measured. The mice which required over 60 seconds to move from the bright room into the dark room were excluded from the test trial. Immediately after the acquisition trial, electric convulsive shock (ECS) (25 mA, 0.2 second, 2000 V) was loaded on mice. The test trial was performed 24 hours after the ECS treatment as follows. The mice received the acquisition trial were placed in the bright room and, latency from the door opening to the entrance of the whole body of animal into the dark room was measured. The maximum measurement time was 600 seconds and latency exceeding 600 seconds was recorded as 600 seconds.
Statistical significance between the control group and test compound treated group was judged by Man Whitney U-test.

The subject of another data set is mice. The data set is described as follows: Scopolamine-induced amnesia, step through passive avoidance. In kind it is in vivo. As to conditions: scopolamine 0.5 mg/kg i.p., mean ± S.E.M., controls 40.9±8.1 (Compound 41), 37.0±6.2 (Compound 51). The method, then:
Acquisition trial was performed in a manner similar to Experiment (f). Amnestic treatment was performed by intraperitoneal administration of scopolamine (0.5 mg/kg), 30 minutes prior to the acquisition trial. The test trial was performed 24 hours after the acquisition trial and its latency was determined as in Experiment (f).
Preparation of administrated test compound was performed in a manner similar to Experiment (f). Test compound and the saline were orally administered 60 minutes before the acquisition trial, respectively.

Where [1] appears, read: relative value for control (1.00), read-out: Na^+/K^+.
Setting [2] is: relative value for control (100), read-out: Excretion of K^+.
[3] abbreviates: relative value for control (100), read-out: Excretion of Na^+.
[4] abbreviates: relative value for control (100), read-out: Urine volume.
Setting [5] is: 0.625 mg/kg orally 60 minutes before acquisition trial.
[6] abbreviates: 2.5 mg/kg orally 60 minutes before acquisition trial.
Where [7] appears, read: 10 mg/kg orally 60 minutes before acquisition trial.
[8] abbreviates: 40 mg/kg orally 60 minutes before acquisition trial.

`CCCn1c(=O)n2c(-c3ccncc3)nnc2c2[nH]cnc21` [Compound 31, 6,9-Dihydro-6-n-propyl-3-(4-pyridyl)-5H-1,2,4-triazolo[3,4-i]purin-5-one] had an MLD in the data set with male dd-mice of over 300 mg/kg. Further, the response vs control in vivo at 25 mg/kg was determined as 166% in the data set with Wistar male rats (setting [1]), 118% in the data set on Wistar male rats (setting [2]), 196% with Wistar male rats (setting [3]) and 191% in the data set with Wistar male rats (setting [4]). For the same molecule, the minimal effective dose in the data set with male dd mice was 25 mg/kg. Further, the IC50 in the data set with trachea was determined as 11 µM. Also, in the data set on Hartley male guinea pigs, the “Experimental asthma Collapse time” value stood at 512 ± 52 s.

The molecule `CCCCn1c(=O)n2c(-c3ccncc3)nnc2c2[nH]cnc21` [Compound 38, 6-n-Butyl-6,9-dihydro-3-(4-pyridyl)-5H-1,2,4-triazolo-[3,4-i]purin-5-one] came in with an MLD with male dd-mice of over 300 mg/kg. Besides, the response vs control in vivo at 25 mg/kg with Wistar male rats (setting [1]) is 163%; in the data set on Wistar male rats (setting [2]) it was 180%; with Wistar male rats (setting [3]) it was 293%; in the data set on Wistar male rats (setting [4]), 353%. Besides, the minimal effective dose in the data set with male dd mice worked out at 25 mg/kg. Moreover, the IC50 in the data set with trachea was over 40 µM. Further, the “Experimental asthma Collapse time” value in the data set with Hartley male guinea pigs stood at 401 ± 78 s.

As to `CCCn1c(=O)n2c(=O)[nH]nc2c2c1ncn2C` [Compound 41, 9-Methyl-6-n-propyl-2,5,6,9-tetrahydro-3H-1,2,4-triazolo[3,4-i]purin-3,5-dione], in the data set on male dd-mice, the MLD is on record as over 300 mg/kg. The “Latency of test trial” value was found to be 105.9 ± 44.0 s in the data set with Male ddy mice (setting [5]); 111.3 ± 20.1 s with Male ddy mice (setting [6]); 97.4 ± 38.7 s in the data set with Male ddy mice (setting [7]); 171.8 ± 43.1 s in the data set on Male ddy mice (setting [8]); 96.8 ± 21.5 s in the data set with mice (setting [5]); 115.8 ± 26.6 s in the data set on mice (setting [6]). For the same molecule, the figures for the “Latency of test trial” value with mice (setting [7]) and with mice (setting [8]) were 53.4 ± 8.9 s and 74.3 ± 18.8 s, respectively.

The record behind these values is EP0417790B1, “S-triazolo[3,4-i]purine derivatives” (Kyowa Hakko Kogyo Co., Ltd., priority 1989, dated 1991).
